Test results: patent US20150164762A1, “USE OF ETHANOLAMINE PHOSPHATE” (priority 2012, published 2015)

Tested on: BEAS-2B
Assay: Comprehensive gene expression analysis with Whole Human Genome DNA microarray after EP treatment
Type: cell-based
Method: Cells of the established normal human airway epithelial cell line BEAS-2B were used in the experiment. These cells were expansively cultured in 10% FBS RPMI-1640, and seeded at a density of 1×10^5/cm^2 on a 24-well plate. After 24 hours 0.1% FBS RPMI-1640 was substituted, and EP was administered to a final concentration of 0 or 1 mM (n=4). After 24 hours, the cells were used as the DNA microarray samples. RNA was extracted using a QIAGEN RNeasy Mini Kit. The DNA microarray test was performed using a Whole Human Genome DNA microarray 4×44K (Agilent), and the necessary labeling reagents and the like for the DNA microarray test were all from Agilent. The DNA microarray test data were analyzed statistically with GeneSpring (Agilent) dedicated analysis software, and gene function analysis (Gene Ontology (GO) analysis) was performed based on differential expression. The purpose of the GO analysis is to determine stochastically the degree to which gene sets with statistically significant differential expression correspond to known functional classification gene sets. […] The p-value is calculated according to the following formula.

[1] = probe A_23_P306987, 1 mM EP, 24 h
[2] = probe A_23_P315815, NM_004495, EP vs control
[3] = probe A_23_P326913, BC019095, EP vs control
[4] = probe A_23_P336611, 1 mM EP, 24 h
[5] = probe A_23_P337242, 1 mM EP, 24 h
[6] = probe A_23_P344421, 1 mM EP, 24 h
[7] = probe A_23_P346311, 1 mM EP, 24 h
[8] = probe A_23_P358944, 1 mM EP, 24 h
[9] = probe A_23_P360777, NM_013960, EP vs control
[10] = probe A_23_P360797, 1 mM EP, 24 h
[11] = probe A_23_P371727, 1 mM EP, 24 h
[12] = probe A_23_P373521, 1 mM EP, 24 h
[13] = probe A_23_P382775, 1 mM EP, 24 h
[14] = probe A_23_P383278, NM_023078, EP vs control
[15] = probe A_23_P404887, 1 mM EP, 24 h
[16] = probe A_23_P407012, NM_172210, EP vs control
[17] = probe A_23_P411296, 1 mM EP, 24 h
[18] = probe A_23_P426305, NM_003734, EP vs control
[19] = probe A_23_P500034, 1 mM EP, 24 h
[20] = probe A_23_P502553, 1 mM EP, 24 h
[21] = probe A_23_P2094013, 1 mM EP, 24 h
[22] = probe A_24_P4661, 1 mM EP, 24 h
[23] = probe A_24_P12401, NM_001025366, EP vs control
[24] = probe A_24_P18105, NM_032466, EP vs control
[25] = probe A_24_P38363, 1 mM EP, 24 h
[26] = probe A_24_P60930, NM_006129, EP vs control
[27] = probe A_24_P83815, 1 mM EP, 24 h
[28] = probe A_24_P122921, 1 mM EP, 24 h
[29] = probe A_24_P135322, 1 mM EP, 24 h
[30] = probe A_24_P139152, 1 mM EP, 24 h
[31] = probe A_24_P139993, 1 mM EP, 24 h
[32] = probe A_24_P175519, NM_003329, EP vs control
[33] = probe A_24_P179400, NM_001025370, EP vs control
[34] = probe A_24_P193911, 1 mM EP, 24 h
[35] = probe A_24_P200000, NM_182915, EP vs control
[36] = probe A_24_P207479, 1 mM EP, 24 h
[37] = probe A_24_P209047, NM_000879, EP vs control

Question: For `NCCOP(=O)(O)O` [EP, Ethanolamine phosphate], which “SOX7 expression R: Ratio to control” value [1] is on record?
Answer: 0.338 times

Question: And the “SOX7 expression log2 [ratio]” value [1]?
Answer: −1.568

Question: What about the “NRG1 gene expression, R* ratio to control” value [2] of the same compound?
Answer: 0.666 times

Question: What about the “NRG1 gene expression, log2 [ratio]” value [2] of the same compound?
Answer: −0.586

Question: What about the “PRUNE2 gene expression, R* ratio to control” value [3] of the same compound?
Answer: 1.441 times

Question: And the “PRUNE2 gene expression, log2 [ratio]” value [3]?
Answer: 0.527

Question: And the “APAF1 expression R*: Ratio to control” value [4]?
Answer: 0.420 times

Question: What about the “APAF1 expression log2 [ratio]” value [4] of the same compound?
Answer: −1.253

Question: And the “TGFBR2 expression R*: Ratio to control” value [5]?
Answer: 1.630 times

Question: And the “TGFBR2 expression log2 [ratio]” value [5]?
Answer: 0.705

Question: And the “ROBO4 expression R*: Ratio to control” value [6]?
Answer: 1.633 times

Question: And the “ROBO4 expression log2 [ratio]” value [6]?
Answer: 0.707

Question: And the “BAX expression R*: Ratio to control” value [7]?
Answer: 0.511 times

Question: And the “BAX expression log2 [ratio]” value [7]?
Answer: −0.969

Question: And the “PML expression R: Ratio to control” value [8]?
Answer: 0.586 times

Question: And the “PML expression log2 [ratio]” value [8]?
Answer: −0.770

Question: What about the “NRG1 gene expression, R* ratio to control” value [9] of the same compound?
Answer: 0.651 times

Question: What about the “NRG1 gene expression, log2 [ratio]” value [9] of the same compound?
Answer: −0.620

Question: And the “NTF3 expression R: Ratio to control” value [10]?
Answer: 0.492 times

Question: And the “NTF3 expression log2 [ratio]” value [10]?
Answer: −1.024

Question: And the “CKS2 expression R*: Ratio to control” value [11]?
Answer: 1.510 times

Question: And the “CKS2 expression log2 [ratio]” value [11]?
Answer: 0.595

Question: What about the “HAND2 expression R*: Ratio to control” value [12] of the same compound?
Answer: 1.971 times

Question: And the “HAND2 expression log2 [ratio]” value [12]?
Answer: 0.979

Question: What about the “BBC3 expression R*: Ratio to control” value [13] of the same compound?
Answer: 0.315 times

Question: And the “BBC3 expression log2 [ratio]” value [13]?
Answer: −1.566

Question: What about the “PYCRL gene expression, R* ratio to control” value [14] of the same compound?
Answer: 1.441 times

Question: And the “PYCRL gene expression, log2 [ratio]” value [14]?
Answer: 0.527

Question: What about the “BIK expression R*: Ratio to control” value [15] of the same compound?
Answer: 0.298 times

Question: And the “BIK expression log2 [ratio]” value [15]?
Answer: −1.743

Question: And the “CSF1 gene expression, R* ratio to control” value [16]?
Answer: 0.593 times

Question: And the “CSF1 gene expression, log2 [ratio]” value [16]?
Answer: −0.753

Question: And the “CEBPB expression R*: Ratio to control” value [17]?
Answer: 0,383 times

Question: And the “CEBPB expression log2 [ratio]” value [17]?
Answer: −1.385

Question: And the “AOC3 gene expression, R* ratio to control” value [18]?
Answer: 1.540 times

Question: And the “AOC3 gene expression, log2 [ratio]” value [18]?
Answer: 0.623

Question: What about the “GL12 expression R*: Ratio to control” value [19] of the same compound?
Answer: 2.060 times

Question: And the “GL12 expression log2 [ratio]” value [19]?
Answer: 1.043

Question: And the “TRIM35 expression R*: Ratio to control” value [20]?
Answer: 0.618 times

Question: What about the “TRIM35 expression log2 [ratio]” value [20] of the same compound?
Answer: −0.695

Question: And the “CASP10 expression R*: Ratio to control” value [21]?
Answer: 0.552 times

Question: And the “CASP10 expression log2 [ratio]” value [21]?
Answer: −0.857

Question: And the “E124 expression R*: Ratio to control” value [22]?
Answer: 0.652 times

Question: And the “E124 expression log2 [ratio]” value [22]?
Answer: −0.618

Question: What about the “VEGFA gene expression, R* ratio to control” value [23] of the same compound?
Answer: 0.540 times

Question: And the “VEGFA gene expression, log2 [ratio]” value [23]?
Answer: −0.889

Question: And the “ASPH gene expression, R* ratio to control” value [24]?
Answer: 1.560 times

Question: What about the “ASPH gene expression, log2 [ratio]” value [24] of the same compound?
Answer: 0.642

Question: And the “MYC expression R*: Ratio to control” value [25]?
Answer: 1.686 times

Question: What about the “MYC expression log2 [ratio]” value [25] of the same compound?
Answer: 0.754

Question: What about the “BMP1 gene expression, R* ratio to control” value [26] of the same compound?
Answer: 0.613 times

Question: And the “BMP1 gene expression, log2 [ratio]” value [26]?
Answer: −0.706

Question: And the “NLRP1 expression R*: Ratio to control” value [27]?
Answer: 0.558 times

Question: What about the “NLRP1 expression log2 [ratio]” value [27] of the same compound?
Answer: −0.841

Question: What about the “BCL2L11 expression R*: Ratio to control” value [28] of the same compound?
Answer: 0.636 times

Question: What about the “BCL2L11 expression log2 [ratio]” value [28] of the same compound?
Answer: −0.652

Question: And the “NRP1 expression R*: Ratio to control” value [29]?
Answer: 1.664 times

Question: And the “NRP1 expression log2 [ratio]” value [29]?
Answer: 0.735

Question: And the “COL8A1 expression R*: Ratio to control” value [30]?
Answer: 1.703 times

Question: And the “COL8A1 expression log2 [ratio]” value [30]?
Answer: 0.768

Question: What about the “CASP10 expression R*: Ratio to control” value [31] of the same compound?
Answer: 0.609 times

Question: And the “CASP10 expression log2 [ratio]” value [31]?
Answer: −0.716

Question: And the “TXN gene expression, R* ratio to control” value [32]?
Answer: 1.438 times

Question: And the “TXN gene expression, log2 [ratio]” value [32]?
Answer: 0.524

Question: What about the “VEGFA gene expression, R* ratio to control” value [33] of the same compound?
Answer: 0.650 times

Question: What about the “VEGFA gene expression, log2 [ratio]” value [33] of the same compound?
Answer: −0.621

Question: And the “MAPRE2 expression R*: Ratio to control” value [34]?
Answer: 1.666 times

Question: What about the “MAPRE2 expression log2 [ratio]” value [34] of the same compound?
Answer: 0.736

Question: And the “STEAP3 gene expression, R* ratio to control” value [35]?
Answer: 2.009 times

Question: What about the “STEAP3 gene expression, log2 [ratio]” value [35] of the same compound?
Answer: 1.007

Question: And the “DEDD2 expression R*: Ratio to control” value [36]?
Answer: 0.597 times

Question: What about the “DEDD2 expression log2 [ratio]” value [36] of the same compound?
Answer: −0.744

Question: What about the “IL5 gene expression, R* ratio to control” value [37] of the same compound?
Answer: 0.304 times

Question: What about the “IL5 gene expression, log2 [ratio]” value [37] of the same compound?
Answer: −1.719
